Assay results reported in PubChem BioAssay AID1963958 (Molecular Pharmacology Branch, DTP, NCI, 2024).

System: MDA-MB-231 multicell spheroids, viability
Assay: Anticancer human tumor MDA-MB-231 cell line growth inhibition [PI3K];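 note: spheroids exposed to agents for seven days before reading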;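 for viability, T/C: percent of vehicle control luminescence with DMSO treated spheroids as 100%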
Conditions: for IC50: curve of first compound; for viability, T/C: stronger effect = lower value
Method in brief: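 Viability of mixed-cell spheroids was determined after exposure to pairwise combinations, one partner being inavolisib, alpelisib, duvelisib or copanlisib. Highest tested concentration matched clinical Cmax where known and 10 microM where not, descending in half-log steps.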

[1] = second compound 0.0316 µM, first compound 0.0316 µM
[2] = second compound 0.0316 µM, first compound 0.1 µM
[3] = second compound 0.0316 µM, first compound 0.316 µM
[4] = second compound 0.0316 µM, first compound 1 µM
[5] = second compound 0.0316 µM, first compound 3.16 µM
[6] = second compound 0.0316 µM, first compound 10 µM
[7] = second compound 0.1 µM, first compound 0.0316 µM
[8] = second compound 0.1 µM, first compound 0.1 µM
[9] = second compound 0.1 µM, first compound 0.316 µM
[10] = second compound 0.1 µM, first compound 1 µM
[11] = second compound 0.1 µM, first compound 3.16 µM
[12] = second compound 0.1 µM, first compound 10 µM
[13] = second compound 0.316 µM, first compound 0.0316 µM
[14] = second compound 0.316 µM, first compound 0.1 µM
[15] = second compound 0.316 µM, first compound 0.316 µM
[16] = second compound 0.316 µM, first compound 1 µM
[17] = second compound 0.316 µM, first compound 3.16 µM
[18] = second compound 0.316 µM, first compound 10 µM
[19] = second compound 1 µM, first compound 0.0316 µM
[20] = second compound 1 µM, first compound 0.1 µM
[21] = second compound 1 µM, first compound 0.316 µM
[22] = second compound 1 µM, first compound 1 µM
[23] = second compound 1 µM, first compound 3.16 µM
[24] = second compound 1 µM, first compound 10 µM
[25] = second compound 3.16 µM, first compound 0.0316 µM
[26] = second compound 3.16 µM, first compound 0.1 µM
[27] = second compound 3.16 µM, first compound 0.316 µM
[28] = second compound 3.16 µM, first compound 1 µM
[29] = second compound 3.16 µM, first compound 3.16 µM
[30] = second compound 3.16 µM, first compound 10 µM
[31] = second compound 10 µM, first compound 0.0316 µM
[32] = second compound 10 µM, first compound 0.1 µM
[33] = second compound 10 µM, first compound 0.316 µM
[34] = second compound 10 µM, first compound 1 µM
[35] = second compound 10 µM, first compound 3.16 µM
[36] = second compound 10 µM, first compound 10 µM

For C#Cc1c(F)ccc2cc(O)cc(-c3ncc4c(N5CC6CCC(C5)N6)nc(OCC56CCCN5CC(F)C6)nc4c3F)c12 (centres undefined) + CC(Nc1ncnc2nc[nH]c12)c1cc2cccc(Cl)c2c(=O)n1-c1ccccc1, the IC50 (second compound 0.0316 µM) was greater than 10 µM, the IC50 (second compound 0.1 µM) was greater than 10 µM and the IC50 (second compound 0.316 µM) was greater than 10 µM. The IC50 (second compound 1 µM) was 6.63 µM, the IC50 (second compound 3.16 µM) was 1.94 µM and the IC50 (second compound 10 µM) was 0.0387 µM. It also gave a viability, T/C [1] of 109%, a viability, T/C [2] of 96.2% and a viability, T/C [3] of 103%. For the same molecule, the viability, T/C [4] was 94.6%, the viability, T/C [5] was 89.9% and the viability, T/C [6] was 61.1%. It also gave a viability, T/C [7] of 101%, a viability, T/C [8] of 99.1% and a viability, T/C [9] of 90.6%. The viability, T/C [10] was 88.3%, the viability, T/C [11] was 79.5% and the viability, T/C [12] was 57.7%. It also gave a viability, T/C [13] of 99.2%, a viability, T/C [14] of 89% and a viability, T/C [15] of 87.6%. It also gave a viability, T/C [16] of 86.4%, a viability, T/C [17] of 77.5% and a viability, T/C [18] of 53.2%. It also gave a viability, T/C [19] of 75.5%, a viability, T/C [20] of 83.2% and a viability, T/C [21] of 90.2%. The viability, T/C [22] was 72.8%, the viability, T/C [23] was 62.4% and the viability, T/C [24] was 43.5%. The viability, T/C [25] was 65.5%, the viability, T/C [26] was 62.8% and the viability, T/C [27] was 56.6%. It also gave a viability, T/C [28] of 56.5%, a viability, T/C [29] of 46.7% and a viability, T/C [30] of 33.1%. The viability, T/C [31] was 51.4%, the viability, T/C [32] was 46.8% and the viability, T/C [33] was 44.4%. For the same molecule, the viability, T/C [34] was 39.8%, the viability, T/C [35] was 35.4% and the viability, T/C [36] was 26.4%.

For C=CC(=O)N1CCN(c2nc(=O)n(-c3c(C)ccnc3C(C)C)c3nc(-c4c(O)cccc4F)c(F)cc23)C(C)C1 (centres undefined) + CC(Nc1ncnc2nc[nH]c12)c1cc2cccc(Cl)c2c(=O)n1-c1ccccc1, the IC50 (second compound 0.0316 µM) was greater than 10 µM, the IC50 (second compound 0.1 µM) was greater than 10 µM and the IC50 (second compound 0.316 µM) was greater than 10 µM. It also gave an IC50 (second compound 1 µM) greater than 10 µM, an IC50 (second compound 3.16 µM) greater than 10 µM and an IC50 (second compound 10 µM) greater than 10 µM. For the same molecule, the viability, T/C [1] was 104%, the viability, T/C [2] was 110% and the viability, T/C [3] was 115%. The viability, T/C [4] was 134%, the viability, T/C [5] was 131% and the viability, T/C [6] was 118%. It also gave a viability, T/C [7] of 111%, a viability, T/C [8] of 103% and a viability, T/C [9] of 113%. The viability, T/C [10] was 132%, the viability, T/C [11] was 131% and the viability, T/C [12] was 118%. The viability, T/C [13] was 101%, the viability, T/C [14] was 98.7% and the viability, T/C [15] was 111%. It also gave a viability, T/C [16] of 115%, a viability, T/C [17] of 133% and a viability, T/C [18] of 114%. The viability, T/C [19] was 86.9%, the viability, T/C [20] was 90.1% and the viability, T/C [21] was 95.7%. The viability, T/C [22] was 106%, the viability, T/C [23] was 108% and the viability, T/C [24] was 96%. It also gave a viability, T/C [25] of 66.5%, a viability, T/C [26] of 70.9% and a viability, T/C [27] of 73.5%. It also gave a viability, T/C [28] of 79.5%, a viability, T/C [29] of 88.2% and a viability, T/C [30] of 78.4%. For the same molecule, the viability, T/C [31] was 51%, the viability, T/C [32] was 52.5% and the viability, T/C [33] was 55.5%. For the same molecule, the viability, T/C [34] was 59%, the viability, T/C [35] was 58.5% and the viability, T/C [36] was 54.6%.
